Results published in PMC11822212, “High-throughput screening identifies Aurora kinase B as a critical therapeutic target for Merkel cell carcinoma” (Nature Communications, 2025).

Legend:
UISO cells (VN-MCC) = experiment: qHTS cell viability (CellTiter-Glo, 72 h; primary and follow-up small molecule screen); format: cell-based, human
[1] = tested on: MCC cell lines (WAGA, MKL-1, MKL-2, MCC13, MCC26, UISO); experiment: qHTS cell viability, all six MCC cell lines as a group (mean AUC, MCC.avg); format: cell-based, human; settings: mean AUC of six MCC cell lines
[2] = tested on: VP-MCC cell lines (WAGA, MKL-1, MKL-2); experiment: qHTS cell viability, VP-MCC cell lines as a group (mean AUC, VP.MCC.avg); format: cell-based, human; settings: for VP-MCC_Avg_AUC: mean AUC of VP-MCC cell lines
MKL-2 cells (VP-MCC) = experiment: qHTS cell viability (CellTiter-Glo, 72 h; primary and follow-up small molecule screen); format: cell-based, human
WAGA cells (VP-MCC) = experiment: as above; format: cell-based, human
CRL-7250 cells = experiment: qHTS cell viability (CellTiter-Glo, 72 h; primary screen), control cell line; format: cell-based
HACAT cells = experiment: as above; format: cell-based, human
[3] = tested on: six MCC cell lines and four control cell lines; experiment: qHTS cell viability, all 10 cell lines screened; format: cell-based
HEK293T cells = experiment: qHTS cell viability (CellTiter-Glo, 72 h; primary screen), control cell line; format: cell-based, human
MCC13 cells (VN-MCC) = experiment: qHTS cell viability (CellTiter-Glo, 72 h; primary and follow-up small molecule screen); format: cell-based, human
MCC26 cells (VN-MCC) = experiment: as above; format: cell-based, human
NIH-3T3 cells = experiment: qHTS cell viability (CellTiter-Glo, 72 h; primary screen), control cell line; format: cell-based, mouse
[4] = tested on: VN-MCC cell lines (MCC13, MCC26, UISO); experiment: qHTS cell viability, VN-MCC cell lines as a group (mean AUC, VN.MCC.avg); format: cell-based, human; settings: for VN-MCC_Avg_AUC: mean AUC of VN-MCC cell lines
[5] = tested on: control cell lines (HACAT, HEK293T, CRL-7250, NIH-3T3); experiment: qHTS cell viability, control cell lines as a group (mean AUC, Control.avg); format: cell-based; settings: mean AUC of control cell lines
MKL-1 cells (VP-MCC) = experiment: qHTS cell viability (CellTiter-Glo, 72 h; primary and follow-up small molecule screen); format: cell-based, human
[6] = MIPE library, 11-point DRC, sheet S2E
[7] = MIPE library, 11-point DRC, control cell line, sheet S2E

Structure (SMILES): O=C(CCN1CCC(c2ccccc2)C1)c1ccc2c(c1)OCCO2 (stereo not shown) [Proroxan]
- UISO_AUC (UISO cells (VN-MCC); NPC library, qHTS dose-response AUC, UISO): 463.935
- Area under the dose-response curve (AUC) UISO Replicate 1 (UISO cells (VN-MCC); follow-up screen, UISO, replicate 1): 440.8
- Area under the dose-response curve (AUC) UISO Replicate 2 (UISO cells (VN-MCC); follow-up screen, UISO, replicate 2): 468.5
- Area under the dose-response curve (AUC) UISO Replicate 3 (UISO cells (VN-MCC); follow-up screen, UISO, replicate 3): 484.4
- MCC_Avg_AUC ([1]; NPC library): 440.324
- VP-MCC_Avg_AUC ([2]; NPC library): 394.094
- Control-VP-MCC ([2]; NPC library, therapeutic window: Control avg AUC minus VP-MCC avg AUC): 67.3656
- MKL2_AUC (MKL-2 cells (VP-MCC); NPC library, qHTS dose-response AUC, MKL2): 379.094
- Area under the dose-response curve (AUC) MKL-2 Replicate 1 (MKL-2 cells (VP-MCC); follow-up screen, MKL-2, replicate 1): 423.0
- Area under the dose-response curve (AUC) MKL-2 Replicate 2 (MKL-2 cells (VP-MCC); follow-up screen, MKL-2, replicate 2): 412.3
- Area under the dose-response curve (AUC) MKL-2 Replicate 3 (MKL-2 cells (VP-MCC); follow-up screen, MKL-2, replicate 3): 429.1
- WAGA_AUC (WAGA cells (VP-MCC); NPC library, qHTS dose-response AUC, WAGA): 401.693
- Area under the dose-response curve (AUC) WAGA Replicate 1 (WAGA cells (VP-MCC); follow-up screen, WAGA, replicate 1): 471.3
- Area under the dose-response curve (AUC) WAGA Replicate 2 (WAGA cells (VP-MCC); follow-up screen, WAGA, replicate 2): 460.1
- Area under the dose-response curve (AUC) WAGA Replicate 3 (WAGA cells (VP-MCC); follow-up screen, WAGA, replicate 3): 475.6
- CRL7250_AUC (CRL-7250 cells; NPC library, qHTS dose-response AUC, CRL7250 control): 469.26
- HACAT_AUC (HACAT cells; NPC library, qHTS dose-response AUC, HACAT control): 483.91
- Control-MCC ([3]; NPC library, therapeutic window: Control avg AUC minus MCC avg AUC): 21.1361
- HEK293T_AUC (HEK293T cells; NPC library, qHTS dose-response AUC, HEK293T control): 432.979
- MCC13_AUC (MCC13 cells (VN-MCC); NPC library, qHTS dose-response AUC, MCC13): 464.203
- Area under the dose-response curve (AUC) MCC13 Replicate 1 (MCC13 cells (VN-MCC); follow-up screen, MCC13, replicate 1): 493.7
- Area under the dose-response curve (AUC) MCC13 Replicate 2 (MCC13 cells (VN-MCC); follow-up screen, MCC13, replicate 2): 500.7
- Area under the dose-response curve (AUC) MCC13 Replicate 3 (MCC13 cells (VN-MCC); follow-up screen, MCC13, replicate 3): 474.6
- MCC26_AUC (MCC26 cells (VN-MCC); NPC library, qHTS dose-response AUC, MCC26): 531.522
- Area under the dose-response curve (AUC) MCC26 Replicate 1 (MCC26 cells (VN-MCC); follow-up screen, MCC26, replicate 1): 461.4
- Area under the dose-response curve (AUC) MCC26 Replicate 2 (MCC26 cells (VN-MCC); follow-up screen, MCC26, replicate 2): 445.0
- Area under the dose-response curve (AUC) MCC26 Replicate 3 (MCC26 cells (VN-MCC); follow-up screen, MCC26, replicate 3): 478.9
- NIH3T3_AUC (NIH-3T3 cells; NPC library, qHTS dose-response AUC, NIH3T3 control): 459.69
- VN-MCC_Avg_AUC ([4]; NPC library): 486.553
- Control-VN-MCC ([4]; NPC library, therapeutic window: Control avg AUC minus VN-MCC avg AUC): -25.0934
- Control_Avg_AUC ([5]; NPC library): 461.46
- MKL1_AUC (MKL-1 cells (VP-MCC); NPC library, qHTS dose-response AUC, MKL1): 401.495
- Area under the dose-response curve (AUC) MKL-1 Replicate 1 (MKL-1 cells (VP-MCC); follow-up screen, MKL-1, replicate 1): 420.7
- Area under the dose-response curve (AUC) MKL-1 Replicate 2 (MKL-1 cells (VP-MCC); follow-up screen, MKL-1, replicate 2): 440.6
- Area under the dose-response curve (AUC) MKL-1 Replicate 3 (MKL-1 cells (VP-MCC); follow-up screen, MKL-1, replicate 3): 412.1

Structure (SMILES): O=C(CCCCCCC(=O)Nc1cccnc1)NO [Pyroxamide]
- UISO_AUC (UISO cells (VN-MCC); [6]): 440.831
- MCC_Avg_AUC ([1]; MIPE library, sheet S2E): 413.478
- Control-VP-MCC ([2]; MIPE library, Control AUC minus VP-MCC AUC (therapeutic window), sheet S2E): 81.0267
- VP-MCC_Avg_AUC ([2]; MIPE library, sheet S2E): 372.833
- MKL2_AUC (MKL-2 cells (VP-MCC); [6]): 371.322
- WAGA_AUC (WAGA cells (VP-MCC); [6]): 346.535
- CRL7250_AUC (CRL-7250 cells; [7]): 459.817
- HACAT_AUC (HACAT cells; [7]): 452.893
- Control-MCC ([3]; MIPE library, Control AUC minus MCC AUC (therapeutic window), sheet S2E): 40.3813
- HEK293T_AUC (HEK293T cells; [7]): 439.975
- MCC13_AUC (MCC13 cells (VN-MCC); [6]): 454.868
- MCC26_AUC (MCC26 cells (VN-MCC); [6]): 466.672
- NIH3T3_AUC (NIH-3T3 cells; [7]): 462.753
- Control-VN-MCC ([4]; MIPE library, Control AUC minus VN-MCC AUC (therapeutic window), sheet S2E): -0.2641
- VN-MCC_Avg_AUC ([4]; MIPE library, sheet S2E): 454.124
- Control_Avg_AUC ([5]; MIPE library, sheet S2E): 453.86
- MKL1_AUC (MKL-1 cells (VP-MCC); [6]): 400.642
